Substitutions are numbered along the chain they refer to.
Tests used:
Assay in all cases: Eurofins kinase profiling
Type in all cases: biochemical
[1] = biological target: T1, EGFR(T790M)(h) (Homo sapiens, UniProt P00533, T790M); settings: read-out: residual kinase activity EGFR(T790M)(h)
T1 construct: purchased Eurofins KinaseProfiler
Outline: (§1)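 Panel of 110 assays under standard conditions; these protein kinases were tested in the radiometric KinaseProfiler assay at a single 1 µM compound concentration.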

[2] = biological target: T2, Flt3(D835Y)(h) (Homo sapiens, UniProt P36888, D835Y); settings: read-out: residual kinase activity Flt3(D835Y)(h)
T2 construct: purchased Eurofins KinaseProfiler
T2 sequence (P36888 27-993 D835Y): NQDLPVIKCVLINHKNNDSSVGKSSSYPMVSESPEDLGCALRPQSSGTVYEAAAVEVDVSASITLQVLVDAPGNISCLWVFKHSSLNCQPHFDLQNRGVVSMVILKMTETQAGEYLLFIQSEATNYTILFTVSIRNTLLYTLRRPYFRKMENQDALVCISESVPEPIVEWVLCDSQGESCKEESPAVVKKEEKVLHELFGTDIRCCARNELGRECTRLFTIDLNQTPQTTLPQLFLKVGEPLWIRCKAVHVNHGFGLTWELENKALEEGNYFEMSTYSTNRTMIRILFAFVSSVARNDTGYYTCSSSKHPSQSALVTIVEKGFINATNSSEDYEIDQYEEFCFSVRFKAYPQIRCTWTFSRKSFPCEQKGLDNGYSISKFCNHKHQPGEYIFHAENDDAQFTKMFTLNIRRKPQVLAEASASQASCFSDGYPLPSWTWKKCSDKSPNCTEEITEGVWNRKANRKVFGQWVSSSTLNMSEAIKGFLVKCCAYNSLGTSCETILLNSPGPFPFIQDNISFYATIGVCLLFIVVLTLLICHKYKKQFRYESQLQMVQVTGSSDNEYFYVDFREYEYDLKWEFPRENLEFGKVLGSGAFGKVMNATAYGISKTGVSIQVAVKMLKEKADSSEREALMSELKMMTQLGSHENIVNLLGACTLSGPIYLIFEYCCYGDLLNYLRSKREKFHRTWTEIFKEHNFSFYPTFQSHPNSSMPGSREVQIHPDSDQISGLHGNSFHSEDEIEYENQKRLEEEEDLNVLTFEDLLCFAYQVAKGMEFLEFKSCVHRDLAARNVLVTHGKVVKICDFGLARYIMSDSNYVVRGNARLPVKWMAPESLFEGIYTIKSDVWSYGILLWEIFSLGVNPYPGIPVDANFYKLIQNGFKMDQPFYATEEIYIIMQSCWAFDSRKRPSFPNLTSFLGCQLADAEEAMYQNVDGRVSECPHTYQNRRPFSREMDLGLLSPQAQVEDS
Outline: as §1

[3] = biological target: T3, Flt3(h) (Homo sapiens, UniProt P36888); settings: read-out: residual kinase activity Flt3(h)
T3 construct: purchased Eurofins KinaseProfiler
T3 sequence (P36888 27-993): T2 sequence (P36888 27-993 D835Y) with Y809D
Outline: as §1

[4] = biological target: T4, HIPK2(h) (Homo sapiens, UniProt Q9H2X6); settings: read-out: residual kinase activity HIPK2(h)
T4 construct: purchased Eurofins KinaseProfiler
Outline: as §1

[5] = biological target: T5, Lck(h) (Homo sapiens, UniProt P06239); settings: read-out: residual kinase activity Lck(h)
T5 construct: purchased Eurofins KinaseProfiler
Outline: as §1

[6] = biological target: T6, PAK1(h) (Homo sapiens, UniProt Q13153); settings: read-out: residual kinase activity PAK1(h)
T6 construct: purchased Eurofins KinaseProfiler
Outline: as §1

[7] = biological target: T7, PI3 Kinase (p110a/p85a)(h) (Homo sapiens, UniProt P42336); settings: read-out: residual kinase activity PI3 Kinase (p110a/p85a)(h)
T7 construct: purchased Eurofins KinaseProfiler
Outline: as §1

[8] = biological target: T8, PI3 Kinase (p110b/p85a)(h) (Homo sapiens, UniProt P42338); settings: read-out: residual kinase activity PI3 Kinase (p110b/p85a)(h)
T8 construct: purchased Eurofins KinaseProfiler
Outline: as §1

[9] = biological target: T9, Pyk2(h) (Homo sapiens, UniProt Q14289); settings: read-out: residual kinase activity Pyk2(h)
T9 construct: purchased Eurofins KinaseProfiler
Outline: as §1

[10] = biological target: T10, TrkA(h) (Homo sapiens, UniProt P04629); settings: read-out: residual kinase activity TrkA(h)
T10 construct: purchased Eurofins KinaseProfiler
Outline: as §1

[11] = biological target: T11, Wee1(h) (Homo sapiens, UniProt P30291); settings: read-out: residual kinase activity Wee1(h)
T11 construct: purchased Eurofins KinaseProfiler
Outline: as §1

T7 sequence (P42336 whole entry): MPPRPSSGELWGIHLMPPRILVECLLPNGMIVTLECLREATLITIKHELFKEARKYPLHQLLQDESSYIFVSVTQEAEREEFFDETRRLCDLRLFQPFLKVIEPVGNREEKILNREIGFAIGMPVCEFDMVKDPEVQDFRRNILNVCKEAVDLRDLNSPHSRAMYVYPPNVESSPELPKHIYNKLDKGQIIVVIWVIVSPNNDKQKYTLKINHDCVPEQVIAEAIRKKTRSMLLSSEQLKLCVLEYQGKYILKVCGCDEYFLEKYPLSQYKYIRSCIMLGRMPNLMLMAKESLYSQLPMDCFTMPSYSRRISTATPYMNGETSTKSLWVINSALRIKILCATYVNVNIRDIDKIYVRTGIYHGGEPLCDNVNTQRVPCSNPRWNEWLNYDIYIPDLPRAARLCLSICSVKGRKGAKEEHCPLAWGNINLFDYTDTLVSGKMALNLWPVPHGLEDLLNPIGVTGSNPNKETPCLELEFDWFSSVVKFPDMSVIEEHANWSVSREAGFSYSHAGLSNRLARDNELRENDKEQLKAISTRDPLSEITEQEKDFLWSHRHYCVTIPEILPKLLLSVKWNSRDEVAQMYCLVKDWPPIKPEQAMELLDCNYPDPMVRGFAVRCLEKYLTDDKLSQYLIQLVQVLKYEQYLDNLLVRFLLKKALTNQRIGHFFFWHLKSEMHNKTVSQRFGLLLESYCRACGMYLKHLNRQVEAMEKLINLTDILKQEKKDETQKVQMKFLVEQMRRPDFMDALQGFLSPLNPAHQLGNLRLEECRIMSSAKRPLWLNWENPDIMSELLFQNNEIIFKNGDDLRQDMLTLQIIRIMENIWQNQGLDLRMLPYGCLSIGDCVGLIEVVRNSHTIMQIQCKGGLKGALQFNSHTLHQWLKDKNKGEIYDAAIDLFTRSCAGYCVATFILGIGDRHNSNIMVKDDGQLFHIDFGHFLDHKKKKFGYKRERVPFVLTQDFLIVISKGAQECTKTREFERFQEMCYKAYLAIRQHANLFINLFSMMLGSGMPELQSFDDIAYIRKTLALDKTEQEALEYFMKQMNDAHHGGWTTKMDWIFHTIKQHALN
T7 sequence (P27986 whole entry partner): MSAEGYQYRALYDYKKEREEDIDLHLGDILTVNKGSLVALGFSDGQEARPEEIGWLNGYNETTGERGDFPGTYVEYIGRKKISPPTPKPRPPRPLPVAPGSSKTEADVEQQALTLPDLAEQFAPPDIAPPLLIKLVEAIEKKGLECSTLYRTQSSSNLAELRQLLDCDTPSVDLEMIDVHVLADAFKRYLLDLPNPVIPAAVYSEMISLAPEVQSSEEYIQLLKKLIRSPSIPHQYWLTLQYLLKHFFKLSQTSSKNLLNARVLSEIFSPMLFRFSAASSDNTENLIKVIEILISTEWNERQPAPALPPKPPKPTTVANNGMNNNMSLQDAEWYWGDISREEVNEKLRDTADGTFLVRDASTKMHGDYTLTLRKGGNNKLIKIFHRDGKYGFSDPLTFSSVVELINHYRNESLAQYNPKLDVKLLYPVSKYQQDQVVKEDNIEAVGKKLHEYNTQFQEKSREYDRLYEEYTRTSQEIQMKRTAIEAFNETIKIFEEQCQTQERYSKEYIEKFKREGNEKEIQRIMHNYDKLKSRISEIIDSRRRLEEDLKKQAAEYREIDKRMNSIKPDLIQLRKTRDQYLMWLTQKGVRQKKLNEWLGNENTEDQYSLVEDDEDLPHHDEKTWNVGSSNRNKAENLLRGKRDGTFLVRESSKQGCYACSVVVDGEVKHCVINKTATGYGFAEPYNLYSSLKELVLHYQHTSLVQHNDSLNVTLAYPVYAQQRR
T8 sequence (P42338 whole entry): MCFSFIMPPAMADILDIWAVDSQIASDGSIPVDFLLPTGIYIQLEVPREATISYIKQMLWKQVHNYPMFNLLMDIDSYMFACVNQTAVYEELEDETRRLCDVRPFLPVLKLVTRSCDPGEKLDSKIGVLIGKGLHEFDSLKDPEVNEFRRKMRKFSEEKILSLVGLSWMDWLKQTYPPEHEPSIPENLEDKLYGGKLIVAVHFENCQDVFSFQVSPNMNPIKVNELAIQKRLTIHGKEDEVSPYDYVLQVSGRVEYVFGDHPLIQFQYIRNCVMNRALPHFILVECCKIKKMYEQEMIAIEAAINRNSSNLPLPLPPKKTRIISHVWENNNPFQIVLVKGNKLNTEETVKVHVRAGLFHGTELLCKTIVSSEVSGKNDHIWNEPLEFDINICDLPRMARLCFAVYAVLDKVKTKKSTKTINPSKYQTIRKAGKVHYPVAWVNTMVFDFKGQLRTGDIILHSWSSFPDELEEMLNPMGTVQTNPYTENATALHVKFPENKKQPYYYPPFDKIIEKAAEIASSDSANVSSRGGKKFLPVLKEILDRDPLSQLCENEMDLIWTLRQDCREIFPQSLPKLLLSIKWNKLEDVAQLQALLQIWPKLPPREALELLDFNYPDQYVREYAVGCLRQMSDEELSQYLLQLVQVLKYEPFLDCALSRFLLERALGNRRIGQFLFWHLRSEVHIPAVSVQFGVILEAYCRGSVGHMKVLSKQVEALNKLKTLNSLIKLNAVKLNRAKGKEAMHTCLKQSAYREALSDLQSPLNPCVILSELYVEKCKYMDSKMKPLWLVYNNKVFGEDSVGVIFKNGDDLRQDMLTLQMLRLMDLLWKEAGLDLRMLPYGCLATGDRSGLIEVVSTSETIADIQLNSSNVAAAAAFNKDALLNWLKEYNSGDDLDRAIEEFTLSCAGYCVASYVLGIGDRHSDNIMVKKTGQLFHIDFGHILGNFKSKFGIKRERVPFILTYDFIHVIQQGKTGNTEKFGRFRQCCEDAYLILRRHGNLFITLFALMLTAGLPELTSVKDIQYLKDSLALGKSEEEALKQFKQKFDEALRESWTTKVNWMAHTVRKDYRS
T8 sequence (P27986 whole entry partner): as the sequence (P27986 whole entry partner) above
T6 sequence (Q13153 whole entry): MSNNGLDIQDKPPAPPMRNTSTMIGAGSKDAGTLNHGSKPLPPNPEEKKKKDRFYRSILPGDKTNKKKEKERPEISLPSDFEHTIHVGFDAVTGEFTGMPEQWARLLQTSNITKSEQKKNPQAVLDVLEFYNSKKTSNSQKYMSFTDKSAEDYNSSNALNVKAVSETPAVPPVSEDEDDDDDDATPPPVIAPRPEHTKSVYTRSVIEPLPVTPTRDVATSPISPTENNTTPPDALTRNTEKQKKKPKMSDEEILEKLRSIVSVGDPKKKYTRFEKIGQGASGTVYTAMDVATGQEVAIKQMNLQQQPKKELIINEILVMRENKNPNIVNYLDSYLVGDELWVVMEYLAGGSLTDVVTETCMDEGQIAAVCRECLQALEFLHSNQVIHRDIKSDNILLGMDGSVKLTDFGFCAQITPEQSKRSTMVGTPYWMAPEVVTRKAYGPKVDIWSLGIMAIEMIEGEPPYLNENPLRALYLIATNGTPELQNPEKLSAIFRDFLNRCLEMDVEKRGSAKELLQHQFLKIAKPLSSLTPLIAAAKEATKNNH
T5 sequence (P06239 whole entry): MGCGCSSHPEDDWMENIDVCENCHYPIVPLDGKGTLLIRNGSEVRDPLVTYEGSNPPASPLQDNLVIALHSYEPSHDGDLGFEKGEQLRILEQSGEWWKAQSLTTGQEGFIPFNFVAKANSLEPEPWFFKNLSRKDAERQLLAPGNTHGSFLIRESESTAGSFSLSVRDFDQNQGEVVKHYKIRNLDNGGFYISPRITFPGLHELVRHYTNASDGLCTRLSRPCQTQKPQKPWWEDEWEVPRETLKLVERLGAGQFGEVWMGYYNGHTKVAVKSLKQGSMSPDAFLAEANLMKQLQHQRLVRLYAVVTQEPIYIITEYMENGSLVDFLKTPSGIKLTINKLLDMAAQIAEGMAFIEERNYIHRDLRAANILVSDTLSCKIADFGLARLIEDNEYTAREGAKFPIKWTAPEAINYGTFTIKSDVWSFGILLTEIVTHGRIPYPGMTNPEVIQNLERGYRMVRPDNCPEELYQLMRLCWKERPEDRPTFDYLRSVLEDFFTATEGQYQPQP
T9 sequence (Q14289 whole entry): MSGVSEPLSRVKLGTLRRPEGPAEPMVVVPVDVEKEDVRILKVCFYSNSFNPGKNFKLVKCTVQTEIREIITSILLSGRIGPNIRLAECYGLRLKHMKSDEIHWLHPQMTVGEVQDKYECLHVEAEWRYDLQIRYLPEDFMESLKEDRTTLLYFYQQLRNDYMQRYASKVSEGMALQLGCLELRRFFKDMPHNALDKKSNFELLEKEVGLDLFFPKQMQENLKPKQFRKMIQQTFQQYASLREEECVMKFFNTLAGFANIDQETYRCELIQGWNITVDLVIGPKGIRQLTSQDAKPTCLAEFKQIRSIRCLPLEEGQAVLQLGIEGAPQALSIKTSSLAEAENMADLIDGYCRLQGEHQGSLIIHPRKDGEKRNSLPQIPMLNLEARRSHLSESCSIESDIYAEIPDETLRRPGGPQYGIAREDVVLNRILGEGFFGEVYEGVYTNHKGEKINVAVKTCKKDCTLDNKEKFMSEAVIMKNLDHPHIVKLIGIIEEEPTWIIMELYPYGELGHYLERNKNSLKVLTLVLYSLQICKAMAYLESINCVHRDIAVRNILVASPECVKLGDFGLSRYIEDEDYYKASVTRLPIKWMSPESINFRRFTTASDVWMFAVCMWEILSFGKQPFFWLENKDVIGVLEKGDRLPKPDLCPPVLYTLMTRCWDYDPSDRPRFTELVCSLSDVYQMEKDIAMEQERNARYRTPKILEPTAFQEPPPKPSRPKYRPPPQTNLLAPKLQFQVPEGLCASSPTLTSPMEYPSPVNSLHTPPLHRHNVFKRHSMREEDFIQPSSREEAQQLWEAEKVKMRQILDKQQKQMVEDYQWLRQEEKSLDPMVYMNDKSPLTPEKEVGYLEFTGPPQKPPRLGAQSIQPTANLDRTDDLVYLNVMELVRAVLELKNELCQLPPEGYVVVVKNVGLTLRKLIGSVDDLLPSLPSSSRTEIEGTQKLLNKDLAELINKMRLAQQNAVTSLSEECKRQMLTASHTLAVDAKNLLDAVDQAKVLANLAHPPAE

remaining activity at 1 µM [1]	remaining activity at 1 µM [2]	remaining activity at 1 µM [3]	remaining activity at 1 µM [4]	remaining activity at 1 µM [5]	remaining activity at 1 µM [6]	remaining activity at 1 µM [7]	remaining activity at 1 µM [8]	remaining activity at 1 µM [9]	remaining activity at 1 µM [10]	remaining activity at 1 µM [11]	Compound
82%	7%	6%	16%	30%	79%	103%	103%	6%	2%	72%	CNC(=O)c1ccc(Nc2ncc(C(F)(F)F)c(NCc3nccnc3N(C)S(C)(=O)=O)n2)cc1 [VS-6063, Defactinib]
106%	76%	108%	94%	110%	91%	83%	105%	60%	103%	88%	CONC(=O)c1ccccc1Nc1cc(Nc2cc(C)nn2C(C)C)ncc1Cl [GSK2256098]

Compound	remaining activity at 1 µM [1]	remaining activity at 1 µM [2]	remaining activity at 1 µM [3]	remaining activity at 1 µM [4]	remaining activity at 1 µM [5]	remaining activity at 1 µM [6]	remaining activity at 1 µM [7]	remaining activity at 1 µM [8]	remaining activity at 1 µM [9]	remaining activity at 1 µM [10]	remaining activity at 1 µM [11]
CNC(=O)c1cccc(C)c1Nc1nc(Nc2ccc(N3CCN(C4C5CC6CC4CC(O)(C6)C5)CC3)cc2OC)ncc1C(F)(F)F (stereo not drawn) [SJP1602, 2-((2-((4-(4-((2s,5r)-5-hydroxyadamantan-2-yl)piperazin-1-yl)-2-methoxyphenyl)amino)-5-(trifluoromethyl)pyrimidin-4-yl)amino)-N,3-dimethylbenzamide]	119%	87%	77%	100%	63%	119%	104%	100%	4%	109%	101%

From publication PMC10528299, “Targeting FAK/PYK2 with SJP1602 for Anti-Tumor Activity in Triple-Negative Breast Cancer” (Current Issues in Molecular Biology, 2023)
